Data reported in patent EP0466251A1, “Elfamycin-resistant mutants” (priority 1990, dated 1992).
Converted amounts (≈) assume the structure as drawn.

Assays:
[1] = system: S. ramocissimus CBS 190.69; test: germination and growth of spores on solid medium (HI-agar); type: cell-based; design: key to Germination and growth of spores: +++ = good growth; ++ = slow growth; + = very slow growth; - = no growth
Procedure: (§1) Similar results were obtained on solid medium (HI-agar, Difco) containing 0 to 1 g/l mocimycin; spores from S. ramocissimus R1V and S. ramocissimus CBS 190.69 were diluted such that approximately 200 colony forming units were applied to each agar plate. Incubation of the plates was at 30°C for 5 days. For the control strain S. ramocissimus CBS 190.69 no colonies appeared above 0.1 g/l mocimycin; on the contrary, spores of S. ramocissimus strain R1V quantitatively were able to germinate and form colonies at least up to 0.75 g/l.

[2] = system: S. ramocissimus R1V; test: as above; type: cell-based; design: key to Germination and growth of spores: +++ = good growth; ++ = slow growth; + = very slow growth; - = no growth
Procedure: as §1

[3] = system: S. ramocissimus CBS 190.69; test: growth of plated mycelium, minimal inhibitory concentration; type: cell-based; settings: mycelium pregrown in YMG medium without mocimycin; 1 ml of a 16 hrs culture plated
Source text: (§2) Essentially identical results were obtained when for each of the strains spores were substituted by mycelium, pregrown in YMG medium without mocimycin.

[4] = system: S. ramocissimus R1V; test: as above; type: cell-based; settings: mycelium pregrown in YMG medium without mocimycin; 1 ml of a 16 hrs culture plated
Source text: as §2

[5] = biological target: T1, parent SrEF-Tu from S. ramocissimus CBS 190.69 (Streptomyces ramocissimus, UniProt P29542); test: in vitro poly(U) directed poly(phe) synthesis; type: biochemical
T1 construct: made in house; host or cells: E. coli PM1455
T1 sequence (P29542 whole entry): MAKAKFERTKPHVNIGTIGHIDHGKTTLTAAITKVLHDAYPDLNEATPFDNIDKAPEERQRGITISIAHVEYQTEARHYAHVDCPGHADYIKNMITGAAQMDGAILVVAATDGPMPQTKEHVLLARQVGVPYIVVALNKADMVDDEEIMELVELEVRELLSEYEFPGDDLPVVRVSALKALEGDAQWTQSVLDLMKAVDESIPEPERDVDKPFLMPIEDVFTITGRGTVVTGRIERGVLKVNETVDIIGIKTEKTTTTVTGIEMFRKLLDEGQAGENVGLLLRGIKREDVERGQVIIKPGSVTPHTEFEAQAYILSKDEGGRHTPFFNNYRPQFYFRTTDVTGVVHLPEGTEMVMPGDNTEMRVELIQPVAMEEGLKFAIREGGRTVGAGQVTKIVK
Procedure: (§3) The sensitivity of SrEF-Tu mutants A378V and A378T to elfamycin was tested by in vitro studies. Both parent and mutant S. ramocissimus EF-Tu, after transformation of the respective cloned genes, were expressed in an E. coli strain encoding an elfamycin resistant EF-Tu. Cell-free extracts of these transformants were subsequently tested for elfamycin sensitivity of the translation apparatus, using a variation on the procedure described by C. Glöckner and H. Wolf (cited above). […] The parent SrEF-Tu reached 50% residual activity already at 1.6 mg/l. […]
(§4) Plasmids pUSrT1-1, pUSrT1V-1 and pUSrT1T-1 were transformed to E. coli PM1455 (tufA, tufB::Mu, rpoB, recA56; P. van der Meide et al., Eur. J. Biochem. 130 (1983) 409-417); this strain has only one active tuf gene, which encodes an elfamycin resistant EF-Tu. […] The first 4 fractions having absorbance at 260 nm were pooled. […]
(§5) At 0°C an incubation mixture was prepared consisting of 40 mM Tris-acetate pH 7.6, 10 mM Mg-acetate, 60 mM NH₄Cl, 5 mM β-mercaptoethanol, 1 mM ATP, 0.025 mM GTP, 2.5 mM phosphoenolpyruvate, 0.25 µg/ml pyruvate kinase, 0.8 mg/ml tRNA, 0.1 mg/ml poly(U), 95 µM phenylalanine, and 3 µCi/ml ³H-phenylalanine (57 Ci/mmol). […] Incorporation of ³H-phenylalanine was analyzed in a liquid scintillation counter. […]

[6] = system: S. ramocissimus CBS 190.69; test: germination and growth of spores in liquid YMG medium; type: cell-based; settings: 5.10⁷ spores/ml, 25 ml YMG medium, shake flasks, 5 days at 30°C
Procedure: (§6) Spores, mycelium, and protoplasts of strain S. ramocissimus R1V were examined with respect to the minimal inhibitory concentration of mocimycin on their growth properties.
(§7) Spores of strain S. ramocissimus R1V and the control S. ramocissimus CBS 190.69 were inoculated at 5.10⁷ spores/ml in parallel shake flasks containing 25 ml YMG medium and mocimycin at concentrations ranging from 0 to 1 g/l. Incubation was for 5 days at 30°C. For the control strain 0.15 g/l mocimycin inhibited germination (and/or growth) of the spores, whereas spores of S. ramocissimus strain R1V still germinated and grew at mocimycin concentrations up to 0.75 g/l.

[7] = system: S. ramocissimus R1V; test: as above; type: cell-based; settings: 5.10⁷ spores/ml, 25 ml YMG medium, shake flasks, 5 days at 30°C
Procedure: as §6, §7

[8] = biological target: T2, SrEF-Tu mutant A378V (Streptomyces ramocissimus, UniProt P29542, A379V); test: in vitro poly(U) directed poly(phe) synthesis; type: biochemical, S. ramocissimus
T2 construct: made in house; host or cells: E. coli PM1455
T2 sequence (P29542 whole entry A379V): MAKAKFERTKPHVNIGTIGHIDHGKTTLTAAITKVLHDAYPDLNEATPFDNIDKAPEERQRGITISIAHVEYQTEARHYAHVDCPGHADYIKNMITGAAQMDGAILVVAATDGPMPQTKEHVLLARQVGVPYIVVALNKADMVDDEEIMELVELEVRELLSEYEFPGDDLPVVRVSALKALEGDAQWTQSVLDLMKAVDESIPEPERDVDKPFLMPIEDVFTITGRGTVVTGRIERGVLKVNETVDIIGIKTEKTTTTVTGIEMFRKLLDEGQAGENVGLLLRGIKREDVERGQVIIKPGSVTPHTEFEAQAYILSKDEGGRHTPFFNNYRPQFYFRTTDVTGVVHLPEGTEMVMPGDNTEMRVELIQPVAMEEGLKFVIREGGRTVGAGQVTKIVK
Procedure: as §3, §4, §5

[9] = biological target: T3, SrEF-Tu mutant A378T (Streptomyces ramocissimus, UniProt P29542, A379T); test: in vitro poly(U) directed poly(phe) synthesis; type: biochemical, S. ramocissimus
T3 construct: made in house; host or cells: E. coli PM1455
T3 sequence (P29542 whole entry A379T): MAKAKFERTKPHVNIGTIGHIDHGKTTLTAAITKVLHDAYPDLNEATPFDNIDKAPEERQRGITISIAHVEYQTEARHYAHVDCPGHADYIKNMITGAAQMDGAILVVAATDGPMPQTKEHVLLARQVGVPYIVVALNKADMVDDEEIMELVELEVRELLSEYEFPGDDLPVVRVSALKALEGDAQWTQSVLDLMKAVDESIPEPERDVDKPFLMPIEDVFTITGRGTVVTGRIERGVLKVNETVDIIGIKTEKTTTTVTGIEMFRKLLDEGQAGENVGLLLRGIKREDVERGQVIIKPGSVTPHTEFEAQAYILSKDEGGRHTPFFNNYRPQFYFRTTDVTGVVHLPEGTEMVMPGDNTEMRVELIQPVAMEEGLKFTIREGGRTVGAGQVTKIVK
Procedure: as §3, §4, §5

[10] = approximately 200 colony forming units per plate, 30°C for 5 days
[11] = 16 mg/l mocimycin, period of 40 minutes
[12] = S-30 extract of E. coli PM1455 transformant, reaction time 10 minutes

C/C=C\C=C\[C@@H]1O[C@](O)([C@H](CC)C(=O)NC/C=C/C=C(\C)[C@@H](OC)[C@H](C)[C@@H]2O[C@H](/C=C/C=C/C=C(\C)C(=O)c3c(O)cc[nH]c3=O)[C@H](O)[C@@H]2O)[C@H](O)[C@H](O)C1(C)C [mocimycin, Mocimycin]
mocimycin concentration above which no colonies appeared [1, 10]: above 0.1 g/l
Germination and growth of spores ([1]; mocimycin 0.10 g/l): +
Germination and growth of spores ([1]; mocimycin 0.20 g/l): -
Germination and growth of spores ([1]; mocimycin 0.40 g/l): -
Germination and growth of spores ([1]; mocimycin 0.60 g/l): -
Germination and growth of spores ([1]; mocimycin 0.75 g/l): -
Germination and growth of spores ([1]; mocimycin 1.0 g/l): -
mocimycin concentration up to which spores were able to germinate and form colonies [2, 10]: ≥ 0.75 g/L
Germination and growth of spores ([2]; mocimycin 0.10 g/l): +++
Germination and growth of spores ([2]; mocimycin 0.20 g/l): +++
Germination and growth of spores ([2]; mocimycin 0.40 g/l): ++
Germination and growth of spores ([2]; mocimycin 0.60 g/l): ++
Germination and growth of spores ([2]; mocimycin 0.75 g/l): +
Germination and growth of spores ([2]; mocimycin 1.0 g/l): -
minimal inhibitory concentration [3]: 0.15 g/L (≈ 188 µM)
minimal inhibitory concentration [4]: 0.75 g/L (≈ 941 µM)
efficiency of ³H-phenylalanine incorporation compared to the mocimycin free reaction [5, 11]: ≤ 20%
mocimycin concentration at a residual activity of 50% in the in vitro poly(phe) synthesis [5, 12]: 1.6 mg/L
mocimycin concentration that inhibited germination (and/or growth) of the spores [6]: 0.15 g/L
mocimycin concentrations at which spores still germinated and grew [7]: up to 0.75 g/l
efficiency of ³H-phenylalanine incorporation compared to the parallel incubation without mocimycin [8, 11]: 80%
mocimycin concentration at a residual activity of 50% in the in vitro poly(phe) synthesis [8, 12]: 160 mg/L
efficiency of ³H-phenylalanine incorporation compared to the parallel incubation without mocimycin [9, 11]: 80%
mocimycin concentration at a residual activity of 50% in the in vitro poly(phe) synthesis [9, 12]: 160 mg/L
